{"source": "patent US6673607B2", "about": "“Microinjection of cryoprotectants for preservation of cells” (priority 2000, dated 2004)", "key": {"[1]": {"settings": "cited from earlier work; for Tg′: α-(1→4)-linked glucose hexamers, Levine and Slade; for temperature at which Tm and Tg curves cross (Tg′): phase diagram, FIG. 6"}, "[2]": {"system": "metaphase II mouse oocytes", "experiment": "fertilization and blastocyst development of fresh oocytes cultured in modified HTF media", "format": "cell-based", "experimental": "Thus, a hypertonic media for the culturing of certain recovered cells was developed using a two-prong approach. First, a standard culture medium called HTF (human tubal fluid medium) was modified to minimize the concentration of electrolytes (see FIG. 7, components marked with down arrows) and to increase other nutrients and amino acids (see FIG. 7, components marked with up arrows). The osmolarity of this medium was determined using an osmometer. Because the osmolarity of this medium was approximately 285 mosm, which is close to the normal internal osmolarity of cells, this medium is called modified HTF, isotonic. Second, the water content of the medium was reduced to equally increase the concentrations of each component to achieve a final osmolarity of 320 mosm. This medium is called modified HTF, hypertonic, (see FIG. 7, last column).\nTo test the ability of modified HTF, isotonic and hypertonic media to support the fertilization and development of oocytes, these medias were used to culture fresh mouse metaphase II oocytes that had not been cyropreserved. […] If desired, the composition and hypertonicity of the culture medium may be further optimized to increase the number of blastocysts or viable offspring that are formed. For example, a culture medium having a higher osmolarity (such as 330, 340, 350, 360, 370, or 380 mosm) may better mimic oviductal fluid (which may have an osmolarity of at least 360 mosm) and thus further promote development of viable offspring (Van Winkle et al., J. Expt Zool. 253:215-219, 1990). Any other suitable hypertonic media with a osmolarity of at least 300, 310, 320, 330, 340, 350, 360, 370, 380, or more mosm may be used in preferred methods for culturing cells in vitro. These methods may be used to culture cells with or without intracellular sugar. These preferred medias may also be used before, during, or after storage of cryopreserved cells."}, "oocytes": {"system": "oocytes", "experiment": "cryomicroscopy: cumulative incidence of intracellular ice during cooling", "format": "cell-based", "settings": "cooling 3.5° C./min", "experimental": "FIG. 13 is a graph with a set of curves showing the percentage of oocytes that have intracellular ice at various temperatures. For this assay, standard cryomicroscopy procedures were used to cool oocytes at a rate of 3.5° C./min (Cosman et al., Cryo-Letters 10:17-38, 1989). The oocytes were observed using a cryomicroscope to determine whether intracellular ice had formed. The presence of intracellular ice was easily detected based on the black color that appeared due to the light scattered by the ice crystals. This assay was used to test control oocytes incubated in isotonic media alone, oocytes incubated in media with 0.1 M extracellular trehalose, and oocytes injected with 0.1 M trehalose and incubated in media with 0.1 M extracellular trehalose. […] In the field of cryobiology, it has been established that the faster the cooling rate without formation of lethal intracellular ice, the greater the chance of cell survival."}, "[3]": {"system": "metaphase II mouse oocytes", "experiment": "survival of cooled oocytes after overnight culture in modified HTF media, isotonic (live/dead assay)", "format": "cell-based", "settings": "0.50 M extracellular trehalose only; very slow cooling to −60° C.", "experimental": "(§1) Once the cell is prepared for storage, it is stored in a manner appropriate to its preparation. Frozen cells can be stored at cryogenic temperatures and dried cells can be dry stored at ambient or other temperatures as appropriate. Recovery of stored cells is geared to the method of their preparation for storage. Dried cells are rehydrated, and frozen cells are thawed. Preferably, at least 25, 35, 50, 60, 70, 80, 90, 95, or 100% of the recovered cells are viable. Cell viability may be measured using any standard assay, such as a “live/dead” assay using the green dye calcein-AM to indicate viable cells and the red dye ethidium homodimer to indicate dead cells, according to the manufacturer's protocol (Molecular Probes, Inc.). In another preferred embodiment, at least 5, 10, 15, 25, 35, 50, 60, 70, 80, 90, or 95% of the recovered oocytes may be fertilized using standard in vitro fertilization techniques (see, for example, Summers et al., Biol. Reprod. 53:431-437, 1995). Preferably, the fertilized oocytes develop into 2-cell stage embryos, 4-cell stage embryos, morula-stage embryos, blastocyst-stage embryos, fetal-stage embryos, or viable offspring.\nCell survival was measured using the live/dead assay. […] In FIG. 10, oocytes were cooled at a very slow cooling rate to an intermediate temperature (−60° C.). […]"}, "[4]": {"system": "metaphase II mouse oocytes", "experiment": "survival of cooled oocytes after overnight culture in modified HTF, hypertonic media (live/dead assay)", "format": "cell-based", "experimental": "as §1\nFIGS. 9A and 9B are a set of graphs showing the survival of cooled metaphase II mouse oocytes after overnight culture in modified HTF, hypertonic media as a function of extracellular trehalose concentration at −15° and −30°, respectively. These experiments were performed using a cooling rate of 1° C./min, with or without approximately 0.10 to 0.15 M intracellular trehalose. Cell viability was assessed using the live/dead assay described herein. […] As the extracellular amount of trehalose in the freezing solution was increased from 0.15 M (approximately the same amount as the intracellular trehalose) to 0.30 M or 0.50 M, the survival rate improved from about 18, to 55 or 85%, respectively."}, "[5]": {"settings": "oocytes injected with 0.07 M trehalose, modified HTF, hypertonic media"}}}
{"compound": "maltohexaose", "values": [{"measurement": "Tg′", "setting": "[1]", "result": "−14.5", "unit": "°C"}]}
{"compound": "C[S+](C)[O-]", "note": "[DMSO, dimethyl sulfoxide]", "values": [{"measurement": "temperature at which Tm and Tg curves cross (Tg′)", "setting": "[1]", "result": "approximately −80 °C"}]}
{"compound": "OC[C@H]1O[C@H](O[C@H]2O[C@H](CO)[C@@H](O)[C@H](O)[C@H]2O)[C@H](O)[C@@H](O)[C@@H]1O", "note": "[trehalose]", "values": [{"measurement": "frequency of blastocyst formation", "setting": "[2]; intracellular trehalose 0.15 M", "result": "reduced, but still significant"}, {"measurement": "frequency of fertilization", "setting": "[2]; intracellular trehalose 0.15 M", "result": "reduced, but still significant"}, {"measurement": "frequency of blastocyst development", "setting": "[2]; [5]", "result": "high frequency"}, {"measurement": "frequency of fertilization", "setting": "[2]; [5]", "result": "high frequency"}, {"measurement": "incidence of intracellular ice formation", "setting": "oocytes; 0.1 M extracellular trehalose versus isotonic media alone", "result": "reduced"}, {"measurement": "frequency of intracellular ice", "setting": "oocytes; 0.1 M injected trehalose plus 0.1 M extracellular trehalose", "result": "further reduced"}, {"measurement": "survival rate", "setting": "[3]", "result": "some improvement over the control"}, {"measurement": "survival rate", "setting": "[4]; 0.15 M extracellular trehalose in freezing solution, with approximately 0.10 to 0.15 M intracellular trehalose, cooling 1° C./min", "result": "about 18%"}, {"measurement": "survival rate", "setting": "[4]; 0.30 M extracellular trehalose in freezing solution, with approximately 0.10 to 0.15 M intracellular trehalose, cooling 1° C./min", "result": "~55", "unit": "%"}, {"measurement": "survival rate", "setting": "[4]; 0.50 M extracellular trehalose in freezing solution, with approximately 0.10 to 0.15 M intracellular trehalose, cooling 1° C./min", "result": "~85", "unit": "%"}, {"measurement": "survival rate", "setting": "[4]; cooled to −15° C. at 1° C./min, approximately 0.10 to 0.15 M intracellular trehalose versus none", "result": "dramatically increased"}, {"measurement": "survival rate", "setting": "[4]; cooled to −30° C. at 1° C./min, approximately 0.10 to 0.15 M intracellular trehalose versus none", "result": "dramatically increased"}, {"measurement": "temperature at which Tm and Tg curves cross (Tg′)", "setting": "[1]", "result": "approximately −30 °C"}]}
{"compound": "cyclodextrin", "values": [{"measurement": "Tg′", "setting": "[1]", "result": "−9", "unit": "°C"}]}
